Reference: US20230295200A1 (REGENTS OF THE UNIVERSITY OF MICHIGAN, priority 2022, published 2023)

Molecular target: T1, STAT6 protein (Homo sapiens, UniProt P42226)
T1 sequence (P42226 1-847): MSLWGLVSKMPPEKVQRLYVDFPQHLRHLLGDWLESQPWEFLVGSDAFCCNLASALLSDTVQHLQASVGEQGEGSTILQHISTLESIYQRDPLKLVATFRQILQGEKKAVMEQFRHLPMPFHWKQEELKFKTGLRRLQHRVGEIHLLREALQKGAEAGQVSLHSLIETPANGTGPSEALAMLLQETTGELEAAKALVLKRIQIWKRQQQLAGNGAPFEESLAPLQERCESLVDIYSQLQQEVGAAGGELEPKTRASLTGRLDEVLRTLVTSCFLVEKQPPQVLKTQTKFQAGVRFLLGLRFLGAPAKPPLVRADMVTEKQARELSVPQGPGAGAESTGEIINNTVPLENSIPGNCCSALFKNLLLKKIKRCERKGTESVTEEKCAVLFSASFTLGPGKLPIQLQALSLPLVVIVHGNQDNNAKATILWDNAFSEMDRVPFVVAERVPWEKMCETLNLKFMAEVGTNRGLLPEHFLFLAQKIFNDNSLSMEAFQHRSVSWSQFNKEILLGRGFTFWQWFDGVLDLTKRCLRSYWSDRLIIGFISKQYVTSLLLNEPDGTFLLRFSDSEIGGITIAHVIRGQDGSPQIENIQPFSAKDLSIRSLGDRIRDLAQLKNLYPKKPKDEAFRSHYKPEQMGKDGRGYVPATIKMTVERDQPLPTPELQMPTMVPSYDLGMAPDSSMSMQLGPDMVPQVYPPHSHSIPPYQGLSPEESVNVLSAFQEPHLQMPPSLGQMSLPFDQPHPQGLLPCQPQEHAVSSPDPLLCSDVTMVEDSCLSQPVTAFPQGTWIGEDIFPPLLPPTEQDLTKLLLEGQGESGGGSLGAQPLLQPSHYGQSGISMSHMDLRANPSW
Test: Fluorescence polarization (FP) binding assay, STAT6
Conditions: FP competition, 5 nM fluorescein-labeled tracer, 200 nM protein, PBS pH7.4; read-out: Binding STAT6
Protocol: Evaluation of the activity of the inhibitors may be accomplished by fluorescence polarization (FP) experiments. A representative general protocol is the following:
Fluorescence polarization (FP) experiments are performed in black round-bottom plates using the CLARIOstar microplate reader. To each well, fluorescein-labeled tracer and STAT5 or STAT6 protein are added in assay buffer. […] The inhibition constants are determined as the concentration of the STAT5 or STAT6 at which 50% of the ligand is bound.
Fluorescence polarization (FP) experiments were performed in 96-well, black round-bottom plates (Microfluor 2, Fisher Scientific) using the CLARIOstar microplate reader (BMG Labtech). To each well, 5 nM of fluoresceinlabeled tracer and 200 nM of STAT5 and/or STAT6 protein were added to a final volume of 100 μl in the assay buffer (PBS pH7.4+0.01% BGG+0.01% Tween-20, 2 mM DTT). The plate was mixed on a shaker for 15 m and incubated at room temperature for 1 h to reach equilibrium. […] All experimental data were analyzed using Prism 8.0 software (GraphPad Software), and the inhibition constants were determined by nonlinear curve fitting as the concentration of the STAT5 and/or STAT6 at which 50% of the ligand is bound.

Structure (SMILES)	Ki
CC(C)(C)[C@H](NC(=O)c1cc2cc(C(F)(F)P(=O)(O)O)ccc2s1)C(=O)N1Cc2ccccc2C[C@H]1C(=O)N1CCOC(C2CCCCC2)C1 (stereo partly drawn) [Compound 222, ((2-(((2S)-1-((3S)-3-(2-cyclohexylmorpholine-4-carbonyl)-3,4-dihydroisoquinolin-2(1H)-yl)-3,3-dimethyl-1-oxobutan-2-yl)carbamoyl)benzo[b]thiophen-5-yl)difluoromethyl)phosphonic acid]	0.1 to 1 µM
CC(C)(C)[C@H](NC(=O)c1cc2cc(C(F)(F)P(=O)(O)O)ccc2s1)C(=O)N1Cc2ccccc2C[C@H]1C(=O)N1CCSC(c2ccccc2)C1 (stereo partly drawn) [Compound 223, ((2-(((2S)-3,3-dimethyl-1-oxo-1-((3S)-3-(2-phenylthiomorpholine-4-carbonyl)-3,4-dihydroisoquinolin-2(1H)-yl)butan-2-yl)carbamoyl)benzo[b]thiophen-5-yl)difluoromethyl)phosphonic acid]	< 0.1 µM
CC(C)(C)[C@H](NC(=O)c1cc2cc(C(F)(F)P(=O)(O)O)ccc2s1)C(=O)N1Cc2ccccc2C[C@H]1C(=O)N1CCS(=O)(=O)[C@H](c2ccccc2)C1 [Compound 224, ((2-(((S)-1-((S)-3-((R)-1,1-dioxido-2-phenylthiomorpholine-4-carbonyl)-3,4-dihydroisoquinolin-2(1H)-yl)-3,3-dimethyl-1-oxobutan-2-yl)carbamoyl)benzo[b]thiophen-5-yl)difluoromethyl)phosphonic acid]	< 0.1 µM
CC(C)(C)[C@H](NC(=O)c1cc2cc(C(F)(F)P(=O)(O)O)ccc2s1)C(=O)N1Cc2ccccc2C[C@H]1C(=O)N1CCS(=O)(=O)[C@@H](c2ccccc2)C1 [Compound 225, ((2-(((S)-1-((S)-3-((S)-1,1-dioxido-2-phenylthiomorpholine-4-carbonyl)-3,4-dihydroisoquinolin-2(1H)-yl)-3,3-dimethyl-1-oxobutan-2-yl)carbamoyl)benzo[b]thiophen-5-yl)difluoromethyl)phosphonic acid]	0.1 to 1 µM
CC1CN(C(=O)[C@@H]2Cc3ccccc3CN2C(=O)[C@@H](NC(=O)c2cc3cc(C(F)(F)P(=O)(O)O)ccc3s2)C(C)(C)C)CC(c2ccccc2)O1 (stereo partly drawn) [Compound 226, ((2-(((2S)-3,3-dimethyl-1-((3S)-3-(2-methyl-6-phenylmorpholine-4-carbonyl)-3,4-dihydroisoquinolin-2(1H)-yl)-1-oxobutan-2-yl)carbamoyl)benzo[b]thiophen-5-yl)difluoromethyl)phosphonic acid]	0.1 to 1 µM
CC(C)(C)[C@H](NC(=O)c1cc2cc(C(F)(F)P(=O)(O)O)ccc2s1)C(=O)N1Cc2ccccc2C[C@H]1C(=O)N1CCOC(c2cccc3ccccc23)C1 (stereo partly drawn) [Compound 227, ((2-(((2S)-3,3-dimethyl-1-((3S)-3-(2-(naphthalen-1-yl)morpholine-4-carbonyl)-3,4-dihydroisoquinolin-2(1H)-yl)-1-oxobutan-2-yl)carbamoyl)benzo[b]thiophen-5-yl)difluoromethyl)phosphonic acid]	0.1 to 1 µM
Cc1ccccc1C1CN(C(=O)[C@@H]2Cc3ccccc3CN2C(=O)[C@@H](NC(=O)c2cc3cc(C(F)(F)P(=O)(O)O)ccc3s2)C(C)(C)C)CCO1 (stereo partly drawn) [Compound 228, ((2-(((2S)-3,3-dimethyl-1-oxo-1-((3S)-3-(2-(o-tolyl)morpholine-4-carbonyl)-3,4-dihydroisoquinolin-2(1H)-yl)butan-2-yl)carbamoyl)benzo[b]thiophen-5-yl)difluoromethyl)phosphonic acid]	0.1 to 1 µM
Cc1ccc(C2CN(C(=O)[C@@H]3Cc4ccccc4CN3C(=O)[C@@H](NC(=O)c3cc4cc(C(F)(F)P(=O)(O)O)ccc4s3)C(C)(C)C)CCO2)c(C)c1 (stereo partly drawn) [Compound 229, ((2-(((2S)-1-((3S)-3-(2-(2,4-dimethylphenyl)morpholine-4-carbonyl)-3,4-dihydroisoquinolin-2(1H)-yl)-3,3-dimethyl-1-oxobutan-2-yl)carbamoyl)benzo[b]thiophen-5-yl)difluoromethyl)phosphonic acid]	1 to 10 µM
CC(C)(C)[C@H](NC(=O)c1cc2cc(C(F)(F)P(=O)(O)O)ccc2s1)C(=O)N1Cc2ccccc2C[C@H]1C(=O)N1CCOC(c2ccccc2F)C1 (stereo partly drawn) [Compound 230, (difluoro(2-(((2S)-1-((3S)-3-(2-(2-fluorophenyl)morpholine-4-carbonyl)-3,4-dihydroisoquinolin-2(1H)-yl)-3,3-dimethyl-1-oxobutan-2-yl)carbamoyl)benzo[b]thiophen-5-yl)methyl)phosphonic acid]	0.1 to 1 µM
CC(C)(C)[C@H](NC(=O)c1cc2cc(C(F)(F)P(=O)(O)O)ccc2s1)C(=O)N1Cc2ccccc2C[C@H]1C(=O)N1CCOC(c2ccc(F)cc2)C1 (stereo partly drawn) [Compound 231, (difluoro(2-(((2S)-1-((3S)-3-(2-(4-fluorophenyl)morpholine-4-carbonyl)-3,4-dihydroisoquinolin-2(1H)-yl)-3,3-dimethyl-1-oxobutan-2-yl)carbamoyl)benzo[b]thiophen-5-yl)methyl)phosphonic acid]	0.1 to 1 µM
CC(C)(C)[C@H](NC(=O)c1cc2cc(C(F)(F)P(=O)(O)O)ccc2s1)C(=O)N1Cc2ccccc2C[C@H]1C(=O)N1CCOC(c2ccccc2Cl)C1 (stereo partly drawn) [Compound 232, ((2-(((2S)-1-((3S)-3-(2-(2-chlorophenyl)morpholine-4-carbonyl)-3,4-dihydroisoquinolin-2(1H)-yl)-3,3-dimethyl-1-oxobutan-2-yl)carbamoyl)benzo[b]thiophen-5-yl)difluoromethyl)phosphonic acid]	0.1 to 1 µM
CC(C)(C)[C@H](NC(=O)c1cc2cc(C(F)(F)P(=O)(O)O)ccc2s1)C(=O)N1Cc2ccccc2C[C@H]1C(=O)N1CCOC(c2cccc(Cl)c2)C1 (stereo partly drawn) [Compound 233, ((2-(((2S)-1-((3S)-3-(2-(3-chlorophenyl)morpholine-4-carbonyl)-3,4-dihydroisoquinolin-2(1H)-yl)-3,3-dimethyl-1-oxobutan-2-yl)carbamoyl)benzo[b]thiophen-5-yl)difluoromethyl)phosphonic acid]	< 0.1 µM
CC(C)(C)[C@H](NC(=O)c1cc2cc(C(F)(F)P(=O)(O)O)ccc2s1)C(=O)N1Cc2ccccc2C[C@H]1C(=O)N1CCOC(c2ccc(Cl)cc2)C1 (stereo partly drawn) [Compound 234, ((2-(((2S)-1-((3S)-3-(2-(4-chlorophenyl)morpholine-4-carbonyl)-3,4-dihydroisoquinolin-2(1H)-yl)-3,3-dimethyl-1-oxobutan-2-yl)carbamoyl)benzo[b]thiophen-5-yl)difluoromethyl)phosphonic acid]	0.1 to 1 µM
CC1(c2ccc(Cl)cc2)CN(C(=O)[C@@H]2Cc3ccccc3CN2C(=O)[C@@H](NC(=O)c2cc3cc(C(F)(F)P(=O)(O)O)ccc3s2)C(C)(C)C)CCO1 (stereo partly drawn) [Compound 235, ((2-(((2S)-1-((3S)-3-(2-(4-chlorophenyl)-2-methylmorpholine-4-carbonyl)-3,4-dihydroisoquinolin-2(1H)-yl)-3,3-dimethyl-1-oxobutan-2-yl)carbamoyl)benzo[b]thiophen-5-yl)difluoromethyl)phosphonic acid]	1 to 10 µM
CC1(c2ccc(F)cc2)CN(C(=O)[C@@H]2Cc3ccccc3CN2C(=O)[C@@H](NC(=O)c2cc3cc(C(F)(F)P(=O)(O)O)ccc3s2)C(C)(C)C)CCO1 (stereo partly drawn) [Compound 236, (difluoro(2-(((2S)-1-((3S)-3-(2-(4-fluorophenyl)-2-methylmorpholine-4-carbonyl)-3,4-dihydroisoquinolin-2(1H)-yl)-3,3-dimethyl-1-oxobutan-2-yl)carbamoyl)benzo[b]thiophen-5-yl)methyl)phosphonic acid]	1 to 10 µM
CC(C)(C)[C@H](NC(=O)c1cc2cc(C(F)(F)P(=O)(O)O)ccc2s1)C(=O)N1Cc2ccccc2C[C@H]1C(=O)N1CCOC(c2ccc(F)cc2F)C1 (stereo partly drawn) [Compound 237, ((2-(((2S)-1-((3S)-3-(2-(2,4-difluorophenyl)morpholine-4-carbonyl)-3,4-dihydroisoquinolin-2(1H)-yl)-3,3-dimethyl-1-oxobutan-2-yl)carbamoyl)benzo[b]thiophen-5-yl)difluoromethyl)phosphonic acid]	0.1 to 1 µM
